Source: the supplement of paper PMC11061612

What was measured:
Assay in all cases: combination Emax (second highest fraction inhibited in the dose matrix, 72 h); higher = more inhibition; extreme values may be limits of the assay
[1] = system: CAL-62 (Thyroid Gland Carcinoma)
Method in brief: (§1)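 After 24 hours at 37°C and 5% CO2 in 1536-well plates, cells in DMEM/F12 or RPMI plus 10% FBS received two-drug dose matrices for 72 hours. Viability came from CellTiter-Glo 2.0 luminescence and was scaled as inhibition, anchored at 0 by vehicle wells and at 1 by blank wells. Combination Emax is taken as the second-highest inhibition in the matrix, and Bliss excess as the observed combination effect less EA + EB − EA·EB, with EA and EB the single-agent effects.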

[2] = system: HSC-39 (Gastric Carcinoma)
Method in brief: as §1

IST-MES1 (Mesothelioma) = system: IST-MES1 (Mesothelioma)
Method in brief: as §1

[3] = system: L-1236 (Hodgkin's Lymphoma)
Method in brief: as §1

[4] = system: LK-2 (Squamous Cell Lung Carcinoma)
Method in brief: as §1

[5] = system: MFE-280 (Endometrial Carcinoma)
Method in brief: as §1

[6] = system: MKN45 (Gastric Carcinoma)
Method in brief: as §1

NB12 (Neuroblastoma) = system: NB12 (Neuroblastoma)
Method in brief: as §1

[7] = system: NCI-H2342 (Lung Adenocarcinoma)
Method in brief: as §1

[8] = system: OVMIU (Ovarian Carcinoma)
Method in brief: as §1

[9] = system: PANC-03-27 (Pancreatic Carcinoma)
Method in brief: as §1

[10] = system: PC-3_[JPC-3] (Lung Adenocarcinoma)
Method in brief: as §1

[11] = system: PSN1 (Pancreatic Carcinoma)
Method in brief: as §1

[12] = system: REH (B-Lymphoblastic Leukemia)
Method in brief: as §1

[13] = system: RKN (Other Solid Carcinomas)
Method in brief: as §1

[14] = system: SHP-77 (Small Cell Lung Carcinoma)
Method in brief: as §1

SK-MEL-2 (Melanoma) = system: SK-MEL-2 (Melanoma)
Method in brief: as §1

[15] = system: SK-PN-DW (Other Solid Carcinomas)
Method in brief: as §1

[16] = system: TE-8 (Esophageal Squamous Cell Carcinoma)
Method in brief: as §1

[17] = system: VAL (B-Cell Non-Hodgkin's Lymphoma)
Method in brief: as §1

| SMILES | combination Emax [1] | combination Emax [2] | combination Emax (IST-MES1 (Mesothelioma)) | combination Emax [3] | combination Emax [4] | combination Emax [5] | combination Emax [6] | combination Emax (NB12 (Neuroblastoma)) | combination Emax [7] | combination Emax [8] | combination Emax [9] | combination Emax [10] | combination Emax [11] | combination Emax [12] | combination Emax [13] | combination Emax [14] | combination Emax (SK-MEL-2 (Melanoma)) | combination Emax [15] | combination Emax [16] | combination Emax [17] |
| --- | --- | --- | --- | --- | --- | --- | --- | --- | --- | --- | --- | --- | --- | --- | --- | --- | --- | --- | --- | --- |
| C=CCn1c(=O)c2cnc(Nc3ccc(N4CCN(C)CC4)cc3)nc2n1-c1cccc(C(C)(C)O)n1 [AZD1775] + CCc1c2c(nc3ccc(O)cc13)-c1cc3c(c(=O)n1C2)COC(=O)[C@]3(O)CC [SN-38] (first compound max 1 µM, partner max 0.3 µM) | 0.893 | 1 | 0.778 | 0.969 | 0.975 | 0.87 | 0.843 | 0.879 | 0.737 | 0.587 | 0.844 | 0.736 | 0.927 | 0.989 | 0.817 | 0.651 | 0.619 | 0.947 | 0.923 | 0.953 |
| Cc1c2c(nn1C)CSCc1cc(n(C)n1)CSc1cc(c3ccccc3c1)OCCCc1c(C(=O)O)n(C)c3c-2c(Cl)ccc13 [AZD5991] + CC(=O)O[C@H]1C(=O)[C@@]2(C)[C@H]([C@H](OC(=O)c3ccccc3)[C@]3(O)C[C@H](OC(=O)[C@H](O)[C@@H](NC(=O)c4ccccc4)c4ccccc4)C(C)=C1C3(C)C)[C@]1(OC(C)=O)CO[C@@H]1C[C@@H]2O [Paclitaxel] (first compound max 1 µM, 7x7, partner max 3 µM) | 0.81 | 1 | 0.651 | 0.846 | 0.986 | 0.574 | 0.709 | 0.91 | 0.988 | 0.735 | 0.688 | 0.58 | 0.746 | 1 | 0.839 | 0.971 | 1 | 0.952 | 0.702 | 0.765 |
| C[C@@H](Oc1cc(-c2cnn(C3CCNCC3)c2)cnc1N)c1c(Cl)ccc(F)c1Cl [Crizotinib] + Cn1cnc2c(F)c(Nc3ccc(Br)cc3Cl)c(C(=O)NOCCO)cc21 [Selumetinib] (first compound max 10 µM, 7x7, partner max 10 µM) | 0.564 | 0.975 | 0.864 | 0.975 | 0.749 | 0.28 | 0.902 | 0.79 | 0.285 | 0.498 | 0.543 | 0.242 | 0.963 | 0.721 | 0.48 | 0.411 | 0.881 | 0.739 | 0.631 | 0.758 |
| C[C@@H](Nc1cc(F)cc(F)c1)c1cc(C(=O)N(C)C)cc2c(=O)cc(N3CCOCC3)oc12 [AZD8186] + CC(=O)c1c(C)c2cnc(Nc3ccc(N4CCNCC4)cn3)nc2n(C2CCCC2)c1=O [Palbociclib] (first compound max 10 µM, 7x7, partner max 10 µM) | 0.36 | 0.813 | 0.454 | 0.697 | 0.237 | 0.518 | 0.534 | 0.403 | 0.337 | 0.497 | 0.513 | 0.369 | 0.558 | 0.625 | 0.292 | 0.337 | 0 | 0.644 | 0.502 | 0.707 |
| C[C@@H](Oc1cc(-c2cnn(C3CCNCC3)c2)cnc1N)c1c(Cl)ccc(F)c1Cl [Crizotinib] + CC1=C(C(=CC=C1)Cl)NC(=O)C2=CN=C(S2)NC3=CC(=NC(=N3)C)N4CCN(CC4)CCO [Dasatinib] (first compound max 10 µM, 7x7, partner max 2 µM) | 0.677 | 1 | 0.938 | 0.905 | 0.765 | 0.661 | 0.854 | 0.766 | 0.37 | 0.933 | 0.887 | 0.809 | 0.777 | 0.752 | 0.567 | 0.259 | 0.0969 | 0.763 | 0.838 | 0.841 |
| O=C(c1cc(Cc2n[nH]c(=O)c3ccccc23)ccc1F)N1CCN(C(=O)C2CC2)CC1 [Olaparib] + CC1(C)CCC(CN2CCN(c3ccc(C(=O)NS(=O)(=O)c4ccc(NCC5CCOCC5)c([N+](=O)[O-])c4)c(Oc4cnc5[nH]ccc5c4)c3)CC2)=C(c2ccc(Cl)cc2)C1 [Venetoclax] (first compound max 10 µM, 7x7, partner max 1 µM) | 0.0638 | 0.205 | 0.283 | 0.37 | 0.347 | 0.169 | 0.201 | 0.922 | 0.158 | 0.114 | 0.12 | 0.153 | 0.192 | 0.966 | 0.119 | 0.258 | 0.162 | 0.301 | 0.137 | 1 |
| CS(=O)(=O)CCNCc1ccc(-c2ccc3ncnc(Nc4ccc(OCc5cccc(F)c5)c(Cl)c4)c3c2)o1 [Lapatinib] + Cn1cnc2c(F)c(Nc3ccc(Br)cc3Cl)c(C(=O)NOCCO)cc21 [Selumetinib] (first compound max 10 µM, 7x7, partner max 10 µM) | 0.477 | 0.99 | 0.55 | 0.712 | 0.485 | 0.274 | 0.635 | 0.354 | 0.257 | 0.671 | 0.812 | 0.653 | 0.748 | 0.237 | 0.369 | 0.387 | 0.793 | 0.556 | 0.521 | 0.597 |
| O=C(c1cc(Cc2n[nH]c(=O)c3ccccc23)ccc1F)N1CCN(C(=O)C2CC2)CC1 [Olaparib] + Cc1c2c(nn1C)CSCc1cc(n(C)n1)CSc1cc(c3ccccc3c1)OCCCc1c(C(=O)O)n(C)c3c-2c(Cl)ccc13 [AZD5991] (first compound max 10 µM, 7x7, partner max 1 µM) | 0.0932 | 1 | 0.242 | 0.53 | 0.301 | 0.181 | 0.185 | 0.379 | 0.239 | 0.104 | 0.128 | 0.0845 | 0.214 | 0.943 | 0.161 | 0.288 | 0.902 | 0.781 | 0.184 | 0.771 |
| C[C@@H]1COCCN1c1cc(C2([S@](C)(=N)=O)CC2)nc(-c2ccnc3[nH]ccc23)n1 [AZD6738] + Nc1ccn([C@@H]2O[C@H](CO)[C@@H](O)C2(F)F)c(=O)n1 [Gemcitabine] (first compound max 10 µM, 7x7, partner max 0.3 µM) | 0.871 | 1 | 0.798 | 0.918 | 0.918 | 0.864 | 0.756 | 0.801 | 0.85 | 0.517 | 0.737 | 0.665 | 0.893 | 0.994 | 0.788 | 0.931 | 0.454 | 0.957 | 0.83 | 0.809 |
| N#Cc1cnc(Nc2cc(NC[C@H]3CNCCO3)c(C(F)(F)F)cn2)cn1 [SRA737] + C=CCn1c(=O)c2cnc(Nc3ccc(N4CCN(C)CC4)cc3)nc2n1-c1cccc(C(C)(C)O)n1 [AZD1775] (first compound max 10 µM, partner max 1 µM) | 0.727 | 1 | 0.442 | 0.952 | 0.953 | 0.566 | 0.742 | 0.698 | 0.621 | 0.669 | 0.858 | 0.26 | 0.642 | 0.957 | 0.608 | 0.722 | 0.772 | 0.913 | 0.777 | 0.797 |
| CN(CCO)CC[C@H](CSc1ccccc1)Nc1ccc(S(=O)(=O)NC(=O)c2ccc(N3CCC([C@@H](O)c4ccccc4-c4ccc(Cl)cc4)CC3)cc2)cc1S(=O)(=O)C(F)(F)F [AZD4320] + CS(=O)(=O)CCNCc1ccc(-c2ccc3ncnc(Nc4ccc(OCc5cccc(F)c5)c(Cl)c4)c3c2)o1 [Lapatinib] (first compound max 1 µM, 7x7, partner max 10 µM) | 0.911 | 0.985 | 0.892 | 1 | 0.977 | 0.962 | 0.2 | 1 | 0.368 | 0.971 | 0.907 | 0.912 | 0.267 | 1 | 0.212 | 0.969 | 0.27 | 0.85 | 0.744 | 1 |
| CC1(C)CCC(CN2CCN(c3ccc(C(=O)NS(=O)(=O)c4ccc(NCC5CCOCC5)c([N+](=O)[O-])c4)c(Oc4cnc5[nH]ccc5c4)c3)CC2)=C(c2ccc(Cl)cc2)C1 [Venetoclax] + CS(=O)(=O)CCNCc1ccc(-c2ccc3ncnc(Nc4ccc(OCc5cccc(F)c5)c(Cl)c4)c3c2)o1 [Lapatinib] (first compound max 1 µM, 7x7, partner max 10 µM) | 0.114 | 0.915 | 0.313 | 0.655 | 0.31 | 0.255 | 0.242 | 0.915 | 0.183 | 0.607 | 0.5 | 0.568 | 0.177 | 0.916 | 0.171 | 0.344 | 0.174 | 0.455 | 0.263 | 1 |
